# Experiments:
# [1] = rabbit, in vivo
# [2] = rabbit, in vivo; remark: listed apart in the source
# [3] = rabbit, in vivo; remark: listed apart in the source
# [4] = rabbit, in vivo; remark: listed apart in the source
# [5] = rabbit, in vivo; remark: listed apart in the source
Substance,Number of animals demonstrating a detectable adverse local reaction four weeks after the first immunization [1],Number of animals demonstrating a detectable adverse local reaction one week after the second immunization [1],"Increase in body temperature one day post immunization 1, mean [2]","Increase in body temperature two days post immunization 1, mean [2]",increases in body temperature in comparison to the corresponding POLY counterpart [2],"Body temperature one day after the first immunization, Mean [3]","Body temperature one day after the second immunization, Mean [3]","Reactogenicity 1 week post immunization 2, GMS [4]","Reactogenicity 1 week post immunization 2, antilog [4]","Reactogenicity 4 weeks post immunization 1, GMS [4]","Reactogenicity 4 weeks post immunization 1, antilog [4]","Body weight gain one week post immunization 1, mean [5]","Body weight gain two weeks post immunization 1, mean [5]"
Monosulphate heptadecylmaltose [M10-MONO],0/6,0/6,0.5 °C,0.1 °C,lower increases,38.9 °C,39.2 °C,1.34,22,1.26,18,35 g,49 g
Monosulphate heptadodecylmaltose [M12-MONO],0/6,0/6,,,,39.0 °C,39.2 °C,,,,,,
Monosulphate tetradodecyl galactose [G12-MONO],"1/6 (discoloration, loss",1/6 (granuloma),,,,39.1 °C,39.3 °C,,,,,,
maltose decanoic acid polysulphate ester [M10-POLY],,,0.7 °C,0.5 °C,,,,3.37,,1.73,53,38 g,53 g
